# Measurements: US9328083B2, “2-aminated methylene or 2-esterified methylene tanshinone derivatives, and preparation method and application thereof” (HANGZHOU BENSHENG PHARMACEUTICAL CO., LTD., priority 2011, dated 2016)
# Like-named read-outs stand apart in the source and are kept apart here.
# How the values were obtained:
# MG63 (osteosarcoma) = experiment: MTT growth inhibition of human solid tumor cells, 72 h; type: cell-based; conditions: MG-63, 72 h
# Procedure, shortened: (§1)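 Test agents, held as a 10 mg/mL solution in dimethylsulfoxide at 4° C in the dark, are diluted with culture medium and applied at several concentrations to cells seeded 24 h earlier (4000/well, high-glucose DMEM, 10% fetal bovine serum, 37° C, 5% CO2).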
# A549 (human lung cancer) = experiment: as above; type: cell-based; conditions: A549, 72 h
# Procedure, shortened: as §1
# [1] = tested on: PANC-1 (pancreatic cancer); experiment: as above; type: cell-based; conditions: PANC-1, 72 h
# Procedure, shortened: as §1
# [2] = tested on: Hela (human cervical cancer cell); experiment: as above; type: cell-based; conditions: 72 h
# Procedure, shortened: as §1
# [3] = tested on: U87 MG (malignant glioma cell); experiment: as above; type: cell-based; conditions: for IC50 / IC90: U87-MG, 72 h
# Procedure, shortened: as §1
# [4] = tested on: CaES-17 (esophageal cancer cell); experiment: as above; type: cell-based; conditions: CaEs-17, 72 h
# Procedure, shortened: as §1
# [5] = tested on: Hep-2 (laryngeal carcinoma); experiment: as above; type: cell-based
# Procedure, shortened: as §1
# [6] = tested on: SK-OV-3 (ovarian cancer cell); experiment: as above; type: cell-based; conditions: SK-OV-3, 72 h
# Procedure, shortened: as §1
# [7] = tested on: RKO (human colon adenocarcinoma cell); experiment: as above; type: cell-based
# Procedure, shortened: as §1
# [8] = tested on: Hep G2 (human liver cancer cell); experiment: as above; type: cell-based; conditions: Hep G2, 72 h
# Procedure, shortened: as §1
# [9] = tested on: MGC 803 (human gastric cancer cell); experiment: as above; type: cell-based; conditions: MGC-803, 72 h
# Procedure, shortened: as §1
# [10] = tested on: CNE (nasopharyngeal carcinoma cell); experiment: as above; type: cell-based
# Procedure, shortened: as §1
# PC-3 (prostate cancer) = experiment: as above; type: cell-based; conditions: PC-3, 72 h
# Procedure, shortened: as §1
# [11] = tested on: Becap37 (human breast cancer cell); experiment: as above; type: cell-based; conditions: Becap-37, 72 h
# Procedure, shortened: as §1
# [12] = tested on: RPMI8226 (multiple myeloma); experiment: MTT growth inhibition of multiple myeloma cells, 72 h; type: cell-based, human; conditions: RPMI 8226, 72 h
# Procedure, shortened: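 RPMI8226 myeloma cells, 6000 per well in 1640 medium with 10% FBS, exposed to compounds at a range of concentrations (diluted from 10 mg/mL DMSO stock) for 72 h at 37° C, 5% CO2. Viable cells then determined by MTT.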
# [13] = tested on: NB4 (acute promyelocytic leukemia, AML); experiment: MTT growth inhibition of leukemia cells, 72 h; type: cell-based, human; conditions: for IC50 / IC90: NB4, 72 h
# Procedure, shortened: (§2)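 Viable cell concentration is determined by MTT after 72 h exposure at 37 °C in 5% CO2. Cells (6000 per well) grow in RPMI-1640 containing 10% fetal bovine serum, and graded compound concentrations are added one day after seeding.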
# [14] = tested on: K562/adr (drug-resistant, chronic myeloid leukemia, CML); experiment: MTT growth inhibition of leukemia cells, 72 h; type: cell-based, human
# Procedure, shortened: as §2
# [15] = tested on: H9 (acute lymphoblastic leukemia, ALL); experiment: MTT growth inhibition of leukemia cells, 72 h; type: cell-based, human; conditions: for IC50 / IC90: H9, 72 h
# Procedure, shortened: as §2
# [16] = tested on: Kasumi-1 (acute myeloid leukemia M2 type, AML-M2); experiment: MTT growth inhibition of leukemia cells, 72 h; type: cell-based, human; conditions: Kasumi-1, 72 h
# Procedure, shortened: as §2
# [17] = tested on: Jurkat (acute lymphoblastic leukemia, ALL); experiment: MTT growth inhibition of leukemia cells, 72 h; type: cell-based, human; conditions: 72 h
# Procedure, shortened: as §2
# Hep G2 cells = conditions: in vitro, literature; cited from earlier work
# [18] = tested on: SGC-7901 human gastric adenocarcinoma cells; conditions: concentration dependent within a certain range, literature; cited from earlier work
# [19] = background statement; cited from earlier work
# [20] = background statement; cited from earlier work; remark: listed apart in the source
# tumor-bearing nude mice = conditions: literature; cited from earlier work
structure (smiles),measurement,setting,value
Cc1c(CNCCO)oc2c1C(=O)C(=O)c1c-2ccc2c(C)cccc12 [BS-TA-65],IC50,"MG63 (osteosarcoma); Homo sapiens, read-out: IC50",0.31 µg/mL
same,IC90,"MG63 (osteosarcoma); Homo sapiens, read-out: IC90",0.98 µg/mL
same,IC50,"A549 (human lung cancer); Homo sapiens, read-out: IC50",0.979 µg/mL
same,IC90,"A549 (human lung cancer); Homo sapiens, read-out: IC90",3.52 µg/mL
same,IC50,"[1]; Homo sapiens, read-out: IC50",0.26 µg/mL
same,IC90,"[1]; Homo sapiens, read-out: IC90",1.9 µg/mL
same,IC50,"[2]; Homo sapiens, HeLa, read-out: IC50",0.42 µg/mL
same,IC90,"[2]; Homo sapiens, HeLa, read-out: IC90",1 µg/mL
same,IC50,"[3]; Homo sapiens, U-87 MG, read-out: IC50",0.15 µg/mL
same,IC90,"[3]; Homo sapiens, U-87 MG, read-out: IC90",0.35 µg/mL
same,improvement of anti-U87 MG activity as compared with tanshinone I,"[3]; U87 MG, vs tanshinone I",more than 42 fold
same,IC50,"[4]; Homo sapiens, CaEs17, read-out: IC50",0.3 µg/mL
same,IC90,"[4]; Homo sapiens, CaEs17, read-out: IC90",0.81 µg/mL
same,IC50,"[5]; Homo sapiens, HEp-2, 72 h, read-out: IC50",0.78 µg/mL
same,IC90,"[5]; Homo sapiens, HEp-2, 72 h, read-out: IC90",2.38 µg/mL
same,IC50,"[6]; Homo sapiens, read-out: IC50",0.86 µg/mL
same,IC90,"[6]; Homo sapiens, read-out: IC90",1.91 µg/mL
same,IC50,"[7]; Homo sapiens, read-out: IC50",0.037 µg/mL
same,IC90,"[7]; Homo sapiens, read-out: IC90",0.29 µg/mL
same,IC50,"[8]; Homo sapiens, HepG2, read-out: IC50",0.31 µg/mL
same,IC90,"[8]; Homo sapiens, HepG2, read-out: IC90",1.5 µg/mL
same,IC50,"[9]; Homo sapiens, read-out: IC50",0.15 µg/mL
same,IC90,"[9]; Homo sapiens, read-out: IC90",1.7 µg/mL
same,IC50,"[10]; Homo sapiens, read-out: IC50",0.6 µg/mL
same,IC90,"[10]; Homo sapiens, read-out: IC90",1.8 µg/mL
same,IC50,"PC-3 (prostate cancer); Homo sapiens, read-out: IC50",0.44 µg/mL
same,IC90,"PC-3 (prostate cancer); Homo sapiens, read-out: IC90",3.58 µg/mL
same,IC50,"[11]; Homo sapiens, read-out: IC50",0.27 µg/mL
same,IC90,"[11]; Homo sapiens, read-out: IC90",0.68 µg/mL
same,IC50,"[12]; Homo sapiens, read-out: IC50",0.125 µg/mL
same,IC90,"[12]; Homo sapiens, read-out: IC90",0.25 µg/mL
same,IC50,"[13]; Homo sapiens, read-out: IC50",0.04 µg/mL
same,IC90,"[13]; Homo sapiens, read-out: IC90",0.08 µg/mL
same,improvement of anti-NB4 activity as compared with tanshinone I,"[13]; NB4, vs tanshinone I",24 fold
same,IC50,"[14]; Homo sapiens, K562/Adr, read-out: IC50",0.16 µg/mL
same,IC90,"[14]; Homo sapiens, K562/Adr, read-out: IC90",1.08 µg/mL
same,improvement of anti-H9 activity as compared with tanshinone I,"[15]; H9, vs tanshinone I",27 fold
same,IC50,"[15]; Homo sapiens, read-out: IC50",0.13 µg/mL
same,IC90,"[15]; Homo sapiens, read-out: IC90",0.41 µg/mL
same,IC50,"[16]; Homo sapiens, read-out: IC50",0.074 µg/mL
same,IC90,"[16]; Homo sapiens, read-out: IC90",0.12 µg/mL
same,IC50,"[17]; Homo sapiens, read-out: IC50",0.17 µg/mL
same,IC90,"[17]; Homo sapiens, read-out: IC90",0.47 µg/mL
"Cc1coc2c1C(=O)C(=O)c1c-2ccc2c(C)cccc12 [TA, 1,6-dimethyl-phenanthreno [1,2-b]furan-10,11-diketone, reference compound]",proliferation of Hep G2 cells,Hep G2 cells,can inhibit the proliferation of Hep G2 cells
same,growth of SGC-7901 cells cultured in vitro,[18],significant inhibitory effect
same,IC50,MG63 (osteosarcoma),0.96 µg/mL
same,IC90,MG63 (osteosarcoma),>16 µg/mL
same,IC50,A549 (human lung cancer),4.03 µg/mL
same,IC90,A549 (human lung cancer),17.29 µg/mL
same,IC50,[1],2.7 µg/mL
same,IC90,[1],>16 µg/mL
same,IC50,[2]; Hela,4 µg/mL
same,IC90,[2]; Hela,>16 µg/mL
same,IC50,[3],6.36 µg/mL
same,IC90,[3],14.63 µg/mL
same,IC50,[4],3.18 µg/mL
same,IC90,[4],16.00 µg/mL
same,IC50,"[5]; HeP-2, 72 h",3.15 µg/mL
same,IC90,"[5]; HeP-2, 72 h",>16 µg/mL
same,IC50,[6],>16 µg/mL
same,IC90,[6],>16 µg/mL
same,IC50,[7],1.83 µg/mL
same,IC90,[7],>16 µg/mL
same,IC50,[8],2.19 µg/mL
same,IC90,[8],22.13 µg/mL
same,IC50,[9],1.62 µg/mL
same,IC90,[9],9.26 µg/mL
same,IC50,[10],7.4 µg/mL
same,IC90,[10],>16 µg/mL
same,IC50,PC-3 (prostate cancer),6.63 µg/mL
same,IC90,PC-3 (prostate cancer),10.57 µg/mL
same,IC50,[11],3.03 µg/mL
same,IC90,[11],>16 µg/mL
same,IC50,[12],0.96 µg/mL
same,IC90,[12],10.86 µg/mL
same,in vivo bioavailability,[19],low in vivo bioavailability
same,solubility in water,[20],poor solubility in water
same,tumor growth in tumor-bearing nude mice,tumor-bearing nude mice,can inhibit the tumor growth in the mice
same,IC50,[13],0.98 µg/mL
same,IC90,[13],2.50 µg/mL
same,IC50,[14]; K562/ADR,0.88 µg/mL
same,IC90,[14]; K562/ADR,4.17 µg/mL
same,IC50,[15],3.5 µg/mL
same,IC90,[15],13.06 µg/mL
same,IC50,[16],0.99 µg/mL
same,IC90,[16],3.62 µg/mL
same,IC50,[17],1.74 µg/mL
same,IC90,[17],8.42 µg/mL
